The test system of experiment [1] is A549. Nature of the experiment: Cytotoxicity against human A549 cells assessed as dose reduction index ratio treated at sequential combination at 2:1 compound to GEM ratio after 48 hrs by SRB assay in presence of GEM. Format: functional.
The test system of experiment [2] is A549. Put plainly: Cytotoxicity against human A549 cells assessed as dose reduction index ratio treated at sequential combination at 5:1 compound to GEM ratio after 48 hrs by SRB assay in presence of GEM. Format: functional.
The subject of experiment [3] is A549. Put plainly: Cytotoxicity against human A549 cells assessed as dose reduction index ratio treated at simultaneous combination at 0.8 fraction inhibition after 48 hrs by SRB assay in presence of alpha-lipoic acid. Format: functional. (In general: Sulforhodamine B stains cellular protein and so reports cell mass.)
Experiment [4] has as its system A549. Put plainly: Cytotoxicity against human A549 cells after 48 hrs by SRB assay. It counts as functional, cell-based. To be noted: for IC50: A549, 48 h.
Experiment [5] deals with A549. Put plainly: Cytotoxicity against human A549 cells assessed as inhibition fraction treated at 2:1 compound to GEM ratio after 48 hrs by SRB assay in presence of GEM. It counts as functional.
In experiment [6] the test system is A549. Nature of the experiment: Induction of H2O2 level in human A549 cells at 1 uM after 5 mins by flow cytometry. It counts as functional, cell-based. On the technique in general: In flow cytometry, cells or beads pass a laser one at a time.
Experiment [7] has as its system A549. Nature of the experiment: Cytotoxicity against human A549 cells assessed as inhibition fraction treated at 5:1 compound to GEM ratio after 48 hrs by SRB assay in presence of GEM. It counts as functional.
Experiment [8] can be described thus: (§1) Cytotoxicity against human T24 cells after 48 hrs by SRB assay. Format: functional, cell-based. To be noted: T-24, 48 h.
Experiment [9] has as its system T-24. The description is as §1. It counts as functional, cell-based.
Experiment [10] deals with A549. Put plainly: Cytotoxicity against human A549 cells assessed as inhibition fraction treated at sequential combination LA + compound sequent. compound for 24 hrs, LA + compound for 24 hrs additional, total 48 hrs 2:1 and 5:1 compound to GEM ratio after 48 hrs by SRB assay in presence of GEM. Format: functional.
Experiment [11] deals with MRC5. Nature of the experiment: Cytotoxicity against human MRC5 cells after 48 hrs by SRB assay. To be noted: for IC50: MRC5, 48 h. Format: functional, cell-based.
Experiment [12] relates to A549. Put plainly: Cytotoxicity against human A549 cells assessed as dose reduction index ratio treated at sequential combination at 2:1 alpha-lipoic acid to compound ratio after 48 hrs by SRB assay in presence of alpha-lipoic acid. It counts as functional.
Experiment [13] concerns A549. Put plainly: Cytotoxicity against human A549 cells treated at LA + compound sequent. LA for 24 hrs), LA + GEM (24 hrs additional, total 48 hrs) 5:1 alpha-lipoic acid to compound ratio after 48 hrs by SRB assay in presence of alpha-lipoic acid. It counts as functional, cell-based.
A short description of experiment [14]: Cytotoxicity against human T24 cells treated at LA + compound sequent. LA for 24 hrs), LA + GEM (24 hrs additional, total 48 hrs) 5:1 alpha-lipoic acid to compound ratio after 48 hrs by SRB assay in presence of alpha-lipoic acid. Format: functional, cell-based. To be noted: T-24.
The subject of experiment [15] is A549. Put plainly: Cytotoxicity against human A549 cells treated at 2:1 and 5:1 alpha-lipoic acid to compound ratio after 48 hrs by SRB assay in presence of alpha-lipoic acid. Format: functional, cell-based. Conditions: A549, 48 h.
For experiment [16], the system named is A549. Put plainly: Cytotoxicity against human A549 cells treated at LA + compound sequent. LA for 24 hrs), LA + GEM (24 hrs additional, total 48 hrs) 2:1 alpha-lipoic acid to compound ratio after 48 hrs by SRB assay in presence of alpha-lipoic acid. Format: functional, cell-based.
Experiment [17] relates to A549. Nature of the experiment: Cytotoxicity against human A549 cells assessed as inhibition fraction treated at 2:1 alpha-lipoic acid to compound ratio after 48 hrs by SRB assay in presence of alpha-lipoic acid. It counts as functional.
For experiment [18], the system named is MRC5. Nature of the experiment: Cytotoxicity against human MRC5 cells treated at LA + compound sequent. compound for 24 hrs, LA + compound for 24 hrs additional, total 48 hrs 2:1 and 5:1 alpha-lipoic acid to compound ratio after 48 hrs by SRB assay in presence of alpha-lipoic acid. It counts as functional, cell-based.
Experiment [19] has as its system MRC5. Nature of the experiment: Cytotoxicity against human MRC5 cells treated at 2:1 and 5:1 alpha-lipoic acid to compound ratio after 48 hrs by SRB assay in presence of alpha-lipoic acid. Format: functional, cell-based. To be noted: MRC5, 48 h.
Experiment [20] relates to MRC5. Put plainly: Cytotoxicity against human MRC5 cells assessed as dose reduction index ratio treated at simultaneous combination at 5:1 alpha-lipoic acid to compound ratio after 48 hrs by SRB assay in presence of alpha-lipoic acid. Format: functional.
For experiment [21], the system named is A549. Put plainly: Cytotoxicity against human A549 cells assessed as combination index treated at 2:1 alpha-lipoic acid to compound ratio after 48 hrs by SRB assay in presence of alpha-lipoic acid. It counts as functional.
Experiment [22] deals with MRC5. Put plainly: Cytotoxicity against human MRC5 cells treated at LA + compound sequent. LA for 24 hrs), LA + GEM (24 hrs additional, total 48 hrs) 2:1 alpha-lipoic acid to compound ratio after 48 hrs by SRB assay in presence of alpha-lipoic acid. Format: functional, cell-based.
Experiment [23] deals with A549. Put plainly: Cytotoxicity against human A549 cells assessed as combination index treated at sequential combination LA + compound sequent. compound for 24 hrs, LA + compound for 24 hrs additional, total 48 hrs 2:1 and 5:1 alpha-lipoic acid to compound ratio after 48 hrs by SRB assay in presence of alpha-lipoic acid. It counts as functional.
Experiment [24] concerns A549. Nature of the experiment: Induction of H2O2 level in human A549 cells at 1 uM after 5 to 30 mins by flow cytometry. Format: functional, cell-based.
For experiment [25], the system named is MRC5. Nature of the experiment: Cytotoxicity against human MRC5 cells assessed as dose reduction index ratio treated at sequential combination at 2:1 alpha-lipoic acid to compound ratio after 48 hrs by SRB assay in presence of alpha-lipoic acid. Format: functional.
The subject of experiment [26] is A549. Nature of the experiment: Cytotoxicity against human A549 cells assessed as inhibition fraction treated at 5:1 alpha-lipoic acid to compound ratio after 48 hrs by SRB assay in presence of alpha-lipoic acid. It counts as functional.
Experiment [27] deals with A549. Nature of the experiment: Cytotoxicity against human A549 cells assessed as dose reduction index ratio treated at sequential combination at 5:1 alpha-lipoic acid to compound ratio after 48 hrs by SRB assay in presence of alpha-lipoic acid. Format: functional.
Experiment [28] has as its system MRC5. Put plainly: Cytotoxicity against human MRC5 cells treated at LA + compound sequent. LA for 24 hrs), LA + GEM (24 hrs additional, total 48 hrs) 5:1 alpha-lipoic acid to compound ratio after 48 hrs by SRB assay in presence of alpha-lipoic acid. It counts as functional, cell-based.
The nature of experiment [29]: Cytotoxicity against human T24 cells treated at LA + compound sequent. compound for 24 hrs, LA + compound for 24 hrs additional, total 48 hrs 2:1 and 5:1 alpha-lipoic acid to compound ratio after 48 hrs by SRB assay in presence of alpha-lipoic acid. It counts as functional, cell-based. To be noted: T-24.
Experiment [30] concerns A549. Nature of the experiment: Cytotoxicity against human A549 cells assessed as inhibition fraction treated at sequential combination LA + compound sequent. compound for 24 hrs, LA + compound for 24 hrs additional, total 48 hrs 2:1 and 5:1 alpha-lipoic acid to compound ratio after 48 hrs by SRB assay in presence of alpha-lipoic acid. It counts as functional.
Experiment [31] in a line: Cytotoxicity against human T24 cells treated at 2:1 and 5:1 alpha-lipoic acid to compound ratio after 48 hrs by SRB assay in presence of alpha-lipoic acid. To be noted: T-24, 48 h. Format: functional, cell-based.
For experiment [32], the system named is A549. Nature of the experiment: Cytotoxicity against human A549 cells assessed as dose reduction index ratio treated at simultaneous combination at 5:1 alpha-lipoic acid to compound ratio after 48 hrs by SRB assay in presence of alpha-lipoic acid. It counts as functional.
The subject of experiment [33] is A549. Put plainly: Cytotoxicity against human A549 cells treated at LA + compound sequent. compound for 24 hrs, LA + compound for 24 hrs additional, total 48 hrs 2:1 and 5:1 alpha-lipoic acid to compound ratio after 48 hrs by SRB assay in presence of alpha-lipoic acid. Format: functional, cell-based.
A short description of experiment [34]: Cytotoxicity against human T24 cells treated at LA + compound sequent. LA for 24 hrs), LA + GEM (24 hrs additional, total 48 hrs) 2:1 alpha-lipoic acid to compound ratio after 48 hrs by SRB assay in presence of alpha-lipoic acid. It counts as functional, cell-based. Conditions: T-24.
The subject of experiment [35] is A549. Nature of the experiment: Cytotoxicity against human A549 cells assessed as combination index treated at 5:1 alpha-lipoic acid to compound ratio after 48 hrs by SRB assay in presence of alpha-lipoic acid. Format: functional.
Experiment [36] concerns MRC5. Put plainly: Cytotoxicity against human MRC5 cells assessed as dose reduction index ratio treated at simultaneous combination at 2:1 alpha-lipoic acid to compound ratio after 48 hrs by SRB assay in presence of alpha-lipoic acid. Format: functional.
Experiment [37] has as its system MRC5. Put plainly: Cytotoxicity against human MRC5 cells assessed as dose reduction index ratio treated at sequential combination at 5:1 alpha-lipoic acid to compound ratio after 48 hrs by SRB assay in presence of alpha-lipoic acid. Format: functional.
For experiment [38], the system named is A549. Nature of the experiment: Cytotoxicity against human A549 cells assessed as dose reduction index ratio treated at simultaneous combination at 0.6 fraction inhibition after 48 hrs by SRB assay in presence of alpha-lipoic acid. It counts as functional.
For experiment [39], the system named is A549. Put plainly: Induction of H2O2 level in human A549 cells at 1 uM after 30 mins by flow cytometry. It counts as functional, cell-based.
Experiment [40] concerns MRC5. Put plainly: Ratio of Gemcitabine IC50 to Compound IC50 for human MRC5 cells after 48 hrs by SRB assay. Format: functional.
Experiment [41] deals with A549. Put plainly: Ratio of Gemcitabine IC50 to Compound IC50 for human A549 cells after 48 hrs by SRB assay. It counts as functional.
Experiment [42] has as its system T-24. Put plainly: Ratio of Gemcitabine IC50 to Compound IC50 for human T24 cells after 48 hrs by SRB assay. Format: functional.

The source made the active and inactive calls. The calls are words filed in the database; no cut-off is given here.

Turning to `O=C(O)CCCCC1CCSS1` (stereo not drawn) [LIPOIC ACID, ALPHA], the Inhibition_index amounted to 1243.87 in [1], 488.47 in [2] and 1572.29 in experiment [3]. Also, the inhibition result in experiment [4], in [9] and in experiment [11] was “Dose-dependent effect” in each case. For the same compound, the IC50 in experiment [4], in experiment [8] and in [11] was > 100000 nM in each case. The Ratio came out at 0.8 in experiment [5], 0.9 in experiment [7] and 0.85 in experiment [10]. The outcome in experiment [6] was Active.
In the case of `Nc1ccn([C@@H]2O[C@H](CO)[C@@H](O)C2(F)F)c(=O)n1` [GEMCITABINE], the Inhibition_index in experiment [12] stood at 1.71; in experiment [27], 1.67; in experiment [32], 4.22; in [38] it was 5.76. The IC50 (commonly the concentration at which inhibition is half-maximal) was > 1000 nM in experiment [13]; 17 nM in experiment [14]; < 3.9 nM in experiment [15]; 29 nM in experiment [16]; 6.8 nM in experiment [4]; < 3.9 nM in experiment [18]. In addition, the 50% inhibitory concentration (IC50) was < 3.9 nM in [19]; 21.6 nM in experiment [22]; 6.8 nM in [28]; < 3.9 nM in experiment [29]; 6.9 nM in experiment [8]; < 3.9 nM in experiment [31]. For the same compound, the results for the IC50 in experiment [33], in [34] and in experiment [11] were 3.9 nM, 18 nM and 6.3 nM, respectively. Further, the Ratio in [17] is 0.6; in experiment [26], 0.1; in [30], 0.65. In addition, the inhibition entry in [4], in experiment [9] and in experiment [11] was “Dose-dependent effect” each time. The CI in [20] was 7.88; in experiment [21], <1; in experiment [23], >1; in experiment [25], 2.06; in experiment [35] it was >1; in experiment [36] it was 8.15. Besides, the CI in experiment [37] was 2.73. For the same compound, the outcome in experiment [24] was inactive.
For `Nc1ccn([C@@H]2O[C@H](COC(=O)CCCC[C@@H]3CCSS3)[C@@H](O)C2(F)F)c(=O)n1`, the inhibition entry in experiment [4], in experiment [9] and in experiment [11] was “Dose-dependent effect” throughout. The IC50 in experiment [4] was < 4.4 nM; in experiment [8] it was 5.3 nM; in experiment [11], 5 nM. In [39], the outcome was Active. The Ratio in experiment [40] is given as 1.24; in experiment [41], 1.54; in [42] it was 1.3.

Values taken from ChEMBL document CHEMBL3421589, “Regioselective chemical and rapid enzymatic synthesis of a novel redox – Antiproliferative molecular hybrid” (Eur J Med Chem, 2015).
